{"source": "patent US20080096857A1", "about": "“Photodynamic Therapy For The Treatment Of Hyperactive Sebaceous Gland Disorders Using Topically Applied Hydrophobic Green Porphyrins” (QLT Inc., priority 2004, published 2008)", "origin": "cited, not measured here", "test_system": "acne vulgaris", "conditions": "topical ALA-PDT of acne vulgaris; J. Invest Dermatol 115:183-192, 2000", "data": [{"compound": "NCC(=O)CCC(=O)O", "note": "[ALA, 5-aminolevulinic acid]", "values": [{"measurement": "adverse events during and after the treatment", "result": "serious adverse events that occurred during and after the treatment including erythema, edema, and sensations of pain, burning and itching"}]}]}
